Test results reported in patent publication US9278087B2, “Derivative of butylphthalide and preparation method and use thereof” (Shijiazhuang Yiling Pharmaceutical Co., Ltd, priority 2011, dated 2016).
Structures can show the parent of a compound that is named as a salt. Where two headings read alike, the source gives them in different places. Marks after values point to notes of the source that are not given here.

Tests used:
rats with local ischemia [1] = test: Volume of cerebral infarction in tMCAO rats, gavage administration; format: in vivo, Wistar rats; settings: for Volume of cerebral infarction (25 mg/kg group): 25 mg/kg oral (gavage) 10 min after ischemia; for Volume of cerebral infarction (25 mg/kg group) / Volume of cerebral infarction (50 mg/kg group) / Volume of cerebral infarction (100 mg/kg group): 2 hr ischemia, 24 hr reperfusion; for Volume of cerebral infarction (50 mg/kg group): 50 mg/kg oral (gavage) 10 min after ischemia; for Effect on the volume of cerebral infarction, in words: oral administration, compared with solvent control group; for Volume of cerebral infarction (100 mg/kg group): 100 mg/kg oral (gavage) 10 min after ischemia
Method: (§1) Wistar rats, body weight 250˜280 g, were raised separately before and after the surgical operation, and kept at room temperature of 23˜25° C. All the rats were allowed ad libitum access to food and water. tMCAO models were prepared according to the method of longa, et al. Rats were anaesthetized with 10% chloral hydrate (350 mg/kg, i.p.), and the body temperature was maintained at 37±0.5° C. The rat was fixed in supine position onto an operating table. The skin was cut along the midline of the neck, and the common carotid artery (CCA), external carotid artery (ECA) and internal carotid artery (ICA) on the right side were carefully isolated. The ECA was ligated and cut, and straightened in line with the ICA. A small incision was cut on the ECA, and a 4.0 cm long round-head silicified nylon thread with a diameter of 0.26 mm (coated with 0.1% polylysine) was inserted through this incision into the ICA for about 1.85˜2.00 cm, until the starting place of the anterior cerebral artery of the rat, to block the blood supply of the middle cerebral artery. After 2 hr of ischemia, the nylon thread was pulled out carefully, the ECA incision was ligated, and the operational incision was sutured. The animal was returned to the cage for 24 hr reperfusion.
Rats were randomly divided into 12 groups: model control group, water for injection (100 mg/kg), the administration group of the Compound 7 in Example 1 (25, 50, 100 mg/kg), the administration group of the Compound 8 in Example 1 (25, 50, 100 mg/kg), the administration group of DL-3-(3′-hydroxy)-butylphthalide (DL for short) (25, 50, 100 mg/kg). They were orally administered 10 min after the ischemia caused by MCA blockage.
(§2) After reperfusion injury in the rat for 24 hr, the rat was beheaded and the brain was taken out immediately. The olfactory tract, the cerebellum and the low brain stem were removed. The brain was coronally cut into 6 slices (the first slice to the fifth slice was 2 mm/slice, and the sixth slice was 4 mm), and they were rapidly placed into 5 ml solution containing 1.5 ml 4% TTC and 0.1 ml 1 M K2HPO4 to stain (37° C., shielded from light) for 20˜30 min, wherein they are flipped once every 5 min. After the TTC staining, the normal tissue was dark stained and appeared red, and the infarcted tissue appeared white. Each group of brain slices were neatly arranged and were taken photos for preservation. The infarction area in each slice was calculated, and the infarction volume was finally converted by superposition. The infarction volume was expressed in percentage in a cerebral hemisphere, to eliminate the effects of cerebral edema. Brain infarction volume(%)=(volume of the contralateral hemisphere to the operated side−volume of uninfarcted portion of the operated hemisphere)/volume of the contralateral hemisphere to the operated side*100% (4) Experimental Results

[2] = system: mice induced by pentobarbital sodium; test: Hypnosis test of pentobarbital sodium in dosage above threshold; format: in vivo, Kunming mice; settings: for Time for falling asleep / Sleeping time: 25 mg/kg gavage for 30 days, pentobarbital sodium 50 mg/kg i.p.; for Sleeping time: within 60 min; for Effect of improving sleep, in words: oral administration to mice for 30 days, summary of both hypnosis tests
Method: (§3) Source of animals: Kunming mice, 18˜22 g, male, were clean grade animals provided by Guangdong Medical Lab Animal Center. In the breeding room of the experimental animals, the temperature was 22±2° C., the relative humidity was 55˜70%, and the animal feed was provided by Guangdong Medical Lab Animal Center.
(§4) 3 groups of Compound 7, Compound 8, DL-3-(3′-hydroxy)-butylphthalide (DL for short) were set in the experiment, 25 mg/kg respectively. And distilled water control group was additionally set.
(§5) Sample processing: 25 mg respective sample was taken, and added with distilled water to 20 ml, to form a uniform suspension, for use in the test.
(§6) Route for administration: gavage
(§7) 40 male mice with a body weight of 18˜22 g were selected, and randomly divided into 4 groups, 10 mice in each group. They were consecutively administered with samples for 30 days, and 15 min after the administration of the samples by gavage on the 30th day, each group of animals were i.p. injected with 50 mg/kg.b.w pentobarbital sodium, and the injection amount was 0.2 ml/20 g.b.w. The criterion for judging falling asleep was that the righting reflex in a mouse disappeared for 1 min or more. The time for falling asleep and the sleeping time of each group of animals within 60 min were observed after administration of pentobarbital sodium.

[3] = system: mice induced by pentobarbital sodium; test: Hypnosis test of pentobarbital sodium in dosage below threshold; format: in vivo, Kunming mice; settings: for Incidence of sleep / Number of animals falling asleep: 25 mg/kg gavage, pentobarbital sodium 30 mg/kg i.p., within 25 min; for Number of animals falling asleep: 10 animals per group; for Number of animals falling asleep and incidence of sleep compared with control group, in words: pentobarbital sodium in dosage below threshold
Method: as §3, §4, §5, §6
as §7, with “for 28” for “for 30”, “with 30” for “with 50”, “for” for “for falling asleep and”, “the occurrence of sleep” for “the sleeping time”, “within 25” for “within 60”

Solubility in water = format: physicochemical
rats with local ischemia [4] = format: in vivo
Method: as §1, §2
Rats of the ischemia blocking model in Example 11 were taken, and randomly divided into 12 groups: sham operation group, model control group, (water for injection, 10 mg/kg), 1a group (2.5 mg/kg, 5.0 mg/kg, 10 mg/kg), 1b group (2.5 mg/kg, 5.0 mg/kg, 10 mg/kg), and 1c group (2.5 mg/kg, 5.0 mg/kg, 10 mg/kg). 10 min after ischemia caused by MCA blockage, they were administered intravenously.
The determination of the volume of cerebral infarction was the same to Example 4.

[5] = 2.5 mg/kg intravenous 10 min after ischemia, 2 hr ischemia, 24 hr reperfusion
[6] = 5.0 mg/kg intravenous 10 min after ischemia, 2 hr ischemia, 24 hr reperfusion
[7] = 10.0 mg/kg intravenous 10 min after ischemia, 2 hr ischemia, 24 hr reperfusion

Compound	Volume of cerebral infarction (25 mg/kg group) (rats with local ischemia [1]) [%]	Volume of cerebral infarction (50 mg/kg group) (rats with local ischemia [1]) [%]	Effect on the volume of cerebral infarction, in words (rats with local ischemia [1])	Time for falling asleep [2] [min]	Sleeping time [2] [min]	Effect of improving sleep, in words [2]	Incidence of sleep [3]	Number of animals falling asleep [3]	Volume of cerebral infarction (100 mg/kg group) (rats with local ischemia [1]) [%]	Number of animals falling asleep and incidence of sleep compared with control group, in words [3]	Volume of cerebral infarction (2.5 mg/kg group) (rats with local ischemia [4]; [5]) [%]	Volume of cerebral infarction (5.0 mg/kg group) (rats with local ischemia [4]; [6]) [%]	Volume of cerebral infarction (10.0 mg/kg group) (rats with local ischemia [4]; [7]) [%]	also measured
CC(O)CC[C@H]1OC(=O)c2ccccc21 (single isomer, unassigned; (+)) [Compound 7]	19.8	18.9	did not effectively reduce the volume of cerebral infarction	5.78 ± 1.88	41.16 ± 7.80	does not have the effect of improving sleep	30%	3						Effect on the volume of cerebral infarction, in words (rats with local ischemia [1]; listed as R-configuration): cannot affect the cerebral infarct volume; Effect on the volume of cerebral infarction, in words (rats with local ischemia [1]; listed as compound in R-configuration): does not have the effect of reducing the cerebral infarct volume
CC(O)CC[C@@H]1OC(=O)c2ccccc21 (single isomer, unassigned; (-)) [Compound 8]	14.6	13.8	can significantly reduce the volume of cerebral infarction	3.91 ± 0.99	53.28 ± 11.12	have effects of improving sleep	80* %	8*	11.8	have significant difference				Effect on the volume of cerebral infarction, in words (rats with local ischemia [1]; listed as S-configuration): decreasing the cerebral infarct volume; Effect of improving sleep, in words ([2]; listed as S-configuration): can improve the sleeping state in animals; Effect of improving sleep, in words ([2]; listed as S-configuration of the Metabolite I): has the effect of improving sleep; Time for falling asleep and sleeping time compared with control group, in words ([2]; pentobarbital sodium in dosage above threshold): have significant difference; Solubility in water, in words (Solubility in water): insoluble in water
CC(CC[C@@H]1OC(=O)c2ccccc21)OC(=O)CCC(=O)[O-].[Na+] (stereo partly drawn) [Compound 1a, sodium salt of (S)-3-(3′-succinate ester)butylphthalide]											21	15.4	11.8	
CC(CC[C@@H]1OC(=O)c2ccccc21)OC(=O)CN (stereo partly drawn) [Compound 1b, (S)-3-(3′-glycinate ester)butylphthalide hydrochloride]														Volume of cerebral infarction (2.5 mg/kg group) (rats with local ischemia [4]; rat, in vivo): 21.3%; Volume of cerebral infarction (5.0 mg/kg group) (rats with local ischemia [4]; rat, in vivo): 16.0%; Volume of cerebral infarction (10.0 mg/kg group) (rats with local ischemia [4]; rat, in vivo): 12.0%
CC(O)CCC1OC(=O)c2ccccc21 (racemic) [DL, DL-3-(3′-hydroxy)-butylphthalide, reference compound]	17.2	16.4	can significantly reduce the volume of cerebral infarction	4.68 ± 1.35	45.48 ± 11.23	have effects of improving sleep	50%	5	14.5	have significant difference				
CC(CC[C@@H]1OC(=O)c2ccccc21)OP(=O)([O-])[O-].[Na+].[Na+] (stereo partly drawn) [Compound 1c, (S)-3-(3′-phosphate ester)butylphthalide disodium salt]											20.6	15.8	11.7	
